We go through 88 sequences from the OligoGym collection.

Bases are written 5' to 3'; sugars and linkages follow in the same order, as letters with counts (s phosphorothioate, o phosphodiester; PS: all linkages phosphorothioate). C may stand for cytosine or 5-methylcytosine; the collection does not tell. l = locked nucleic acid (LNA); d = 2'-deoxy (DNA)

This data set addresses HIF1A. Nature of the data set: HeLa, 100 nM transfected, 24 h, mean of 3. As to conditions: ASO.
“GTTACTGCCTTCTTAC (sugars l1 d3 l1 d7 l4, PS)” returned a caspase activation (% of PBS control) of 259.

“GTTACTGCCTTCTTAC (sugars l1 d3 l1 d8 l3, PS)” showed a caspase activation (% of PBS control) of 174.

Regarding “GTTACTGCCTTCTTAC (sugars l1 d3 l1 d9 l2, PS)”, the caspase activation (% of PBS control) is 103.

In turn, “GTTACTGCCTTCTTAC (sugars l1 d3 l1 d10 l1, PS)” returned a caspase activation (% of PBS control) of 130.

In turn, “GTTACTGCCTTCTTAC (sugars l1 d10 l1 d1 l3, PS)” registered a caspase activation (% of PBS control) of 125.

In turn, “GTTACTGCCTTCTTAC (sugars l1 d10 l1 d2 l2, PS)” showed a caspase activation (% of PBS control) of 102.

“GTTACTGCCTTCTTAC (sugars l1 d10 l1 d3 l1, PS)” returned a caspase activation (% of PBS control) of 127.

In the case of “GTTACTGCCTTCTTAC (sugars l1 d10 l2 d1 l2, PS)”, the caspase activation (% of PBS control) turned out to be 136.

Sequence “GTTACTGCCTTCTTAC (sugars l1 d10 l2 d2 l1, PS)” came in with a caspase activation (% of PBS control) of 134.

Regarding “GTTACTGCCTTCTTAC (sugars l1 d10 l3 d1 l1, PS)”, the caspase activation (% of PBS control) came to 261.

For the sequence GTTACTGCCTTCTTAC (sugars l1 d10 l5, PS), the caspase activation (% of PBS control) came out at 350.

As for “GTTACTGCCTTCTTAC (sugars l1 d11 l1 d1 l2, PS)”, the caspase activation (% of PBS control) turned out to be 117.

“GTTACTGCCTTCTTAC (sugars l1 d11 l1 d2 l1, PS)” had a caspase activation (% of PBS control) of 115.

Consider “GTTACTGCCTTCTTAC (sugars l1 d11 l2 d1 l1, PS)”, for which the caspase activation (% of PBS control) turned out to be 137.

Sequence GTTACTGCCTTCTTAC (sugars l1 d11 l4, PS) gave a caspase activation (% of PBS control) of 125.

Consider “GTTACTGCCTTCTTAC (sugars l1 d12 l1 d1 l1, PS)”, for which the caspase activation (% of PBS control) came out at 103.

For the sequence GTTACTGCCTTCTTAC (sugars l1 d12 l3, PS), the caspase activation (% of PBS control) was 100.

In the case of GTTACTGCCTTCTTAC (sugars l1 d13 l2, PS), the caspase activation (% of PBS control) came to 87.3.

Turning to GTTACTGCCTTCTTAC (sugars l1 d14 l1, PS), the caspase activation (% of PBS control) is 102.

The sequence “GTTACTGCCTTCTTAC (sugars l2 d1 l1 d7 l5, PS)” returned a caspase activation (% of PBS control) of 335.

The sequence “GTTACTGCCTTCTTAC (sugars l2 d1 l1 d8 l4, PS)” returned a caspase activation (% of PBS control) of 194.

“GTTACTGCCTTCTTAC (sugars l2 d1 l1 d9 l3, PS)” displayed a caspase activation (% of PBS control) of 130.

The sequence “GTTACTGCCTTCTTAC (sugars l2 d1 l1 d10 l2, PS)” displayed a caspase activation (% of PBS control) of 97.3.

“GTTACTGCCTTCTTAC (sugars l2 d1 l1 d11 l1, PS)” gave a caspase activation (% of PBS control) of 110.

“GTTACTGCCTTCTTAC (sugars l2 d1 l2 d6 l5, PS)” gave a caspase activation (% of PBS control) of 474.

Turning to “GTTACTGCCTTCTTAC (sugars l2 d1 l2 d7 l4, PS)”, the caspase activation (% of PBS control) came out at 376.

Take “GTTACTGCCTTCTTAC (sugars l2 d1 l2 d8 l3, PS)”: the caspase activation (% of PBS control) came to 318.

Sequence “GTTACTGCCTTCTTAC (sugars l2 d1 l2 d9 l2, PS)” had a caspase activation (% of PBS control) of 161.

In turn, “GTTACTGCCTTCTTAC (sugars l2 d1 l2 d10 l1, PS)” returned a caspase activation (% of PBS control) of 161.

“GTTACTGCCTTCTTAC (sugars l2 d2 l1 d6 l5, PS)” displayed a caspase activation (% of PBS control) of 365.

“GTTACTGCCTTCTTAC (sugars l2 d2 l1 d7 l4, PS)”: the caspase activation (% of PBS control) amounted to 324.

In the case of “GTTACTGCCTTCTTAC (sugars l2 d2 l1 d8 l3, PS)”, the caspase activation (% of PBS control) was 237.

Take “GTTACTGCCTTCTTAC (sugars l2 d2 l1 d9 l2, PS)”: the caspase activation (% of PBS control) stood at 138.

For the sequence “GTTACTGCCTTCTTAC (sugars l2 d2 l1 d10 l1, PS)”, the caspase activation (% of PBS control) amounted to 158.

“GTTACTGCCTTCTTAC (sugars l2 d9 l1 d1 l3, PS)” yielded a caspase activation (% of PBS control) of 157.

With “GTTACTGCCTTCTTAC (sugars l2 d9 l1 d2 l2, PS)”, the caspase activation (% of PBS control) amounted to 120.

“GTTACTGCCTTCTTAC (sugars l2 d9 l1 d3 l1, PS)” showed a caspase activation (% of PBS control) of 107.

As to “GTTACTGCCTTCTTAC (sugars l2 d9 l2 d1 l2, PS)”, the caspase activation (% of PBS control) came out at 223.

“GTTACTGCCTTCTTAC (sugars l2 d9 l2 d2 l1, PS)” came in with a caspase activation (% of PBS control) of 199.

As to “GTTACTGCCTTCTTAC (sugars l2 d9 l3 d1 l1, PS)”, the caspase activation (% of PBS control) was determined as 333.

As for GTTACTGCCTTCTTAC (sugars l2 d9 l5, PS), the caspase activation (% of PBS control) was 328.

“GTTACTGCCTTCTTAC (sugars l2 d10 l1 d1 l2, PS)” came in with a caspase activation (% of PBS control) of 128.

As for “GTTACTGCCTTCTTAC (sugars l2 d10 l1 d2 l1, PS)”, the caspase activation (% of PBS control) was determined as 123.

With “GTTACTGCCTTCTTAC (sugars l2 d10 l2 d1 l1, PS)”, the caspase activation (% of PBS control) was 151.

Sequence GTTACTGCCTTCTTAC (sugars l2 d10 l4, PS) gave a caspase activation (% of PBS control) of 151.

Sequence “GTTACTGCCTTCTTAC (sugars l2 d11 l1 d1 l1, PS)” returned a caspase activation (% of PBS control) of 129.

For GTTACTGCCTTCTTAC (sugars l2 d11 l3, PS), the caspase activation (% of PBS control) came to 122.

GTTACTGCCTTCTTAC (sugars l2 d12 l2, PS) yielded a caspase activation (% of PBS control) of 103.

GTTACTGCCTTCTTAC (sugars l2 d13 l1, PS) showed a caspase activation (% of PBS control) of 102.

Sequence “GTTACTGCCTTCTTAC (sugars l3 d1 l1 d6 l5, PS)” yielded a caspase activation (% of PBS control) of 474.

For the sequence “GTTACTGCCTTCTTAC (sugars l3 d1 l1 d7 l4, PS)”, the caspase activation (% of PBS control) came to 324.

The sequence “GTTACTGCCTTCTTAC (sugars l3 d1 l1 d8 l3, PS)” came in with a caspase activation (% of PBS control) of 264.

Take “GTTACTGCCTTCTTAC (sugars l3 d1 l1 d9 l2, PS)”: the caspase activation (% of PBS control) stood at 185.

As for “GTTACTGCCTTCTTAC (sugars l3 d1 l1 d10 l1, PS)”, the caspase activation (% of PBS control) was 185.

In the case of “GTTACTGCCTTCTTAC (sugars l3 d8 l1 d1 l3, PS)”, the caspase activation (% of PBS control) is 197.

Consider “GTTACTGCCTTCTTAC (sugars l3 d8 l1 d2 l2, PS)”, for which the caspase activation (% of PBS control) came to 204.

For the sequence “GTTACTGCCTTCTTAC (sugars l3 d8 l1 d3 l1, PS)”, the caspase activation (% of PBS control) came out at 198.

Consider “GTTACTGCCTTCTTAC (sugars l3 d8 l2 d1 l2, PS)”, for which the caspase activation (% of PBS control) came to 243.

“GTTACTGCCTTCTTAC (sugars l3 d8 l2 d2 l1, PS)” registered a caspase activation (% of PBS control) of 273.

In turn, “GTTACTGCCTTCTTAC (sugars l3 d8 l3 d1 l1, PS)” returned a caspase activation (% of PBS control) of 360.

In turn, GTTACTGCCTTCTTAC (sugars l3 d8 l5, PS) came in with a caspase activation (% of PBS control) of 379.

Take “GTTACTGCCTTCTTAC (sugars l3 d9 l1 d1 l2, PS)”: the caspase activation (% of PBS control) is 188.

For “GTTACTGCCTTCTTAC (sugars l3 d9 l1 d2 l1, PS)”, the caspase activation (% of PBS control) was determined as 185.

“GTTACTGCCTTCTTAC (sugars l3 d9 l2 d1 l1, PS)” came in with a caspase activation (% of PBS control) of 202.

GTTACTGCCTTCTTAC (sugars l3 d9 l4, PS) returned a caspase activation (% of PBS control) of 165.

Sequence “GTTACTGCCTTCTTAC (sugars l3 d10 l1 d1 l1, PS)” showed a caspase activation (% of PBS control) of 161.

For the sequence GTTACTGCCTTCTTAC (sugars l3 d10 l3, PS), the caspase activation (% of PBS control) was determined as 134.

The sequence GTTACTGCCTTCTTAC (sugars l3 d11 l2, PS) registered a caspase activation (% of PBS control) of 136.

For the sequence GTTACTGCCTTCTTAC (sugars l3 d12 l1, PS), the caspase activation (% of PBS control) was 127.

For “GTTACTGCCTTCTTAC (sugars l4 d7 l1 d1 l3, PS)”, the caspase activation (% of PBS control) is 253.

“GTTACTGCCTTCTTAC (sugars l4 d7 l1 d2 l2, PS)” had a caspase activation (% of PBS control) of 255.

Regarding “GTTACTGCCTTCTTAC (sugars l4 d7 l1 d3 l1, PS)”, the caspase activation (% of PBS control) amounted to 250.

“GTTACTGCCTTCTTAC (sugars l4 d7 l2 d1 l2, PS)” yielded a caspase activation (% of PBS control) of 291.

Take “GTTACTGCCTTCTTAC (sugars l4 d7 l2 d2 l1, PS)”: the caspase activation (% of PBS control) was found to be 264.

Turning to “GTTACTGCCTTCTTAC (sugars l4 d7 l3 d1 l1, PS)”, the caspase activation (% of PBS control) is 444.

GTTACTGCCTTCTTAC (sugars l4 d7 l5, PS) had a caspase activation (% of PBS control) of 461.

In turn, “GTTACTGCCTTCTTAC (sugars l4 d8 l1 d1 l2, PS)” gave a caspase activation (% of PBS control) of 218.

For “GTTACTGCCTTCTTAC (sugars l4 d8 l1 d2 l1, PS)”, the caspase activation (% of PBS control) amounted to 209.

In the case of “GTTACTGCCTTCTTAC (sugars l4 d8 l2 d1 l1, PS)”, the caspase activation (% of PBS control) stood at 284.

GTTACTGCCTTCTTAC (sugars l4 d8 l4, PS) came in with a caspase activation (% of PBS control) of 272.

For “GTTACTGCCTTCTTAC (sugars l4 d9 l1 d1 l1, PS)”, the caspase activation (% of PBS control) amounted to 191.

With GTTACTGCCTTCTTAC (sugars l4 d9 l3, PS), the caspase activation (% of PBS control) is 160.

GTTACTGCCTTCTTAC (sugars l4 d10 l2, PS): the caspase activation (% of PBS control) turned out to be 190.

With GTTACTGCCTTCTTAC (sugars l4 d11 l1, PS), the caspase activation (% of PBS control) stood at 159.

“GTTACTGCCTTCTTAC (sugars l5 d6 l1 d1 l3, PS)” registered a caspase activation (% of PBS control) of 441.

The sequence “GTTACTGCCTTCTTAC (sugars l5 d6 l1 d2 l2, PS)” yielded a caspase activation (% of PBS control) of 442.

Regarding “GTTACTGCCTTCTTAC (sugars l5 d6 l1 d3 l1, PS)”, the caspase activation (% of PBS control) was found to be 454.

As to “GTTACTGCCTTCTTAC (sugars l5 d6 l2 d1 l2, PS)”, the caspase activation (% of PBS control) amounted to 488.
